Experimental data from US10611766B2, “Pyrazolopyrimidine derivatives as BTK inhibitors for the treatment of cancer” (Loxo Oncology, Inc., priority 2015, dated 2020).

System: OCI-Ly10 human DLBCL cells
Assay: OCI-Ly10 anti-proliferative activity (Resazurin, 72 h)
Type: cell-based
Conditions: read-out: Proliferation OCI-Ly10-IC50
Description: Compounds were assayed for effects on the growth of OCI-Ly10 human DLBCL cells that are dependent on NFκB signalling. OCI-Ly10 cells were grown in suspension in T225 flasks, centrifuged and re-suspended in 2.5% FBS containing media. Cells were then plated at 7.5×10^3 cells per well in 96-well plates in varying concentrations of compound and incubated for 72 h at 37° C. An additional plate of cells to be used as the Day 0 read was seeded without compound addition, Resazurin was added to each well, incubated for 5 h and the fluorescence measured at 590 nm. After 72 h of compound treatment, Resazurin was added to each well of the compound treated plates, incubated for 5 h and the fluorescence measured at 590 nm. The IC50 was then calculated by subtracting the average Day 0 value from each well value from the treated plates, each treatment was then calculated as a percentage of the DMSO control and the percentages plotted against the inhibitor concentration to estimate the IC50 from log [Inhibitor] vs response using the Variable Slope model in Graphpad prism from Graphpad software (SanDiego, Calif.).

## COc1ccccc1C(=O)NCc1ccc(-c2nn(C3CCC(C(=O)N(C)C)CC3)c3ncnc(N)c23)cc1 (single isomer, unassigned; isomer 1) [33-isomer 1]
  IC50: 10 to 100 nM
